From PubChem BioAssay (NCI)
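Results reflect a 48-hour exposure of cells in 96-well plates to compound at five concentrations. At the TGI there is no net growth.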

What was measured:
Assay in all cases: DTP human tumour cell line panel, 48 h
HCT-15 colon = tested on: HCT-15 colon
IGROV1 ovarian = tested on: IGROV1 ovarian
NCI-H23 lung = tested on: NCI-H23 lung
EKVX NSCLC = tested on: EKVX NSCLC
M14 melanoma = tested on: M14 melanoma
CCRF-CEM leukemia = tested on: CCRF-CEM leukemia
SF-295 CNS = tested on: SF-295 CNS
786-0 renal = tested on: 786-0 renal
DU-145 prostate = tested on: DU-145 prostate
U251 CNS = tested on: U251 CNS
SW-620 colon = tested on: SW-620 colon
PC-3 prostate = tested on: PC-3 prostate
NCI-H460 lung = tested on: NCI-H460 lung
HS 578T breast = tested on: HS 578T breast
A549 NSCLC = tested on: A549 NSCLC
SK-MEL-28 melanoma = tested on: SK-MEL-28 melanoma
HT29 colon = tested on: HT29 colon
BT-549 breast = tested on: BT-549 breast
RPMI-8226 leukemia = tested on: RPMI-8226 leukemia
OVCAR-3 ovarian = tested on: OVCAR-3 ovarian
UACC-257 melanoma = tested on: UACC-257 melanoma
HOP-92 NSCLC = tested on: HOP-92 NSCLC
OVCAR-8 ovarian = tested on: OVCAR-8 ovarian
SK-MEL-5 melanoma = tested on: SK-MEL-5 melanoma
HCT-116 colon = tested on: HCT-116 colon
CAKI-1 renal = tested on: CAKI-1 renal
RXF 393 renal = tested on: RXF 393 renal
MDA-MB-231 breast = tested on: MDA-MB-231 breast
TK-10 renal = tested on: TK-10 renal
SN12C renal = tested on: SN12C renal
MDA-MB-435 = tested on: MDA-MB-435
K-562 leukemia = tested on: K-562 leukemia
SR leukemia = tested on: SR leukemia
SF-268 CNS = tested on: SF-268 CNS
NCI-H226 lung = tested on: NCI-H226 lung
UACC-62 melanoma = tested on: UACC-62 melanoma
SK-OV-3 ovarian = tested on: SK-OV-3 ovarian
MDA-N = tested on: MDA-N
LOX IMVI melanoma = tested on: LOX IMVI melanoma
NCI/ADR-RES ovarian = tested on: NCI/ADR-RES ovarian
HL-60(TB) leukemia = tested on: HL-60(TB) leukemia
SF-539 CNS = tested on: SF-539 CNS
OVCAR-5 ovarian = tested on: OVCAR-5 ovarian
SNB-19 CNS = tested on: SNB-19 CNS
SNB-75 CNS = tested on: SNB-75 CNS
MALME-3M melanoma = tested on: MALME-3M melanoma
HCC-2998 colon = tested on: HCC-2998 colon
HOP-62 NSCLC = tested on: HOP-62 NSCLC
A498 renal = tested on: A498 renal
SK-MEL-2 melanoma = tested on: SK-MEL-2 melanoma
NCI-H522 lung = tested on: NCI-H522 lung
ACHN renal = tested on: ACHN renal
COLO 205 colon = tested on: COLO 205 colon
UO-31 renal = tested on: UO-31 renal

Which results are given for CC1CCC2c3c([nH]c4ccccc34)C3C(=O)N(C4CCCCC4)C(=O)C3C2C1 (centres undefined)?
TGI (HCT-15 colon): > 100 µM; TGI (IGROV1 ovarian): 43.9 µM; TGI (NCI-H23 lung): 54.2 µM; TGI (EKVX NSCLC): 39.6 µM; TGI (M14 melanoma): 59.3 µM; TGI (CCRF-CEM leukemia): > 100 µM; TGI (SF-295 CNS): 37.5 µM; TGI (786-0 renal): 19.6 µM; TGI (DU-145 prostate): > 100 µM; TGI (U251 CNS): 25.3 µM; TGI (SW-620 colon): > 100 µM; TGI (PC-3 prostate): > 100 µM; TGI (NCI-H460 lung): > 100 µM; TGI (HS 578T breast): 57.4 µM; TGI (A549 NSCLC): 50.3 µM; TGI (SK-MEL-28 melanoma): 34.1 µM; TGI (HT29 colon): > 100 µM; TGI (BT-549 breast): 32.7 µM; TGI (RPMI-8226 leukemia): > 100 µM; TGI (OVCAR-3 ovarian): 39.8 µM; TGI (UACC-257 melanoma): > 100 µM; TGI (HOP-92 NSCLC): 44.9 µM; TGI (OVCAR-8 ovarian): 42.5 µM; TGI (SK-MEL-5 melanoma): 36.1 µM; TGI (HCT-116 colon): 24.2 µM; TGI (CAKI-1 renal): 30.8 µM; TGI (RXF 393 renal): 28.9 µM; TGI (MDA-MB-231 breast): 26.8 µM; TGI (TK-10 renal): 27.1 µM; TGI (SN12C renal): > 100 µM; TGI (MDA-MB-435): > 100 µM; TGI (K-562 leukemia): 47.2 µM; TGI (SR leukemia): > 100 µM; TGI (SF-268 CNS): 29.8 µM; TGI (NCI-H226 lung): 36 µM; TGI (UACC-62 melanoma): 28.8 µM; TGI (SK-OV-3 ovarian): 42.5 µM; TGI (MDA-N): > 100 µM; TGI (LOX IMVI melanoma): > 100 µM; TGI (NCI/ADR-RES ovarian): > 100 µM; TGI (HL-60(TB) leukemia): > 100 µM; TGI (SF-539 CNS): 62.6 µM; TGI (OVCAR-5 ovarian): > 100 µM; TGI (SNB-19 CNS): 32 µM; TGI (SNB-75 CNS): 8.51 µM; TGI (MALME-3M melanoma): > 100 µM; TGI (HCC-2998 colon): > 100 µM; TGI (HOP-62 NSCLC): 32.7 µM; TGI (A498 renal): 37.9 µM; TGI (SK-MEL-2 melanoma): 40.3 µM; TGI (NCI-H522 lung): > 100 µM; TGI (ACHN renal): 27.8 µM; TGI (COLO 205 colon): > 100 µM; TGI (UO-31 renal): 37.2 µM
